# From patent publication US20230220331A1, “TEMPORARY TREATMENT MEDIUM, TREATMENT KIT, EMBRYOGENESIS ARREST INHIBITOR, EMBRYOGENESIS ARREST INHIBITORY METHOD, DEVELOPMENTAL ENGINEERING PRODUCT PREPARATION METHOD, TRANSPLANTATION METHOD, THERAPEUTIC METHOD, AND DEVELOPMENTAL ENGINEERING PRODUCT” (priority 2020, published 2023)
# Test system: frozen embryos of C57BL/6J
# Test: Recovery of re-frozen and re-thawed blastocysts, cytochalasin B vs Y-27632 (Treatment Example 10)
# Format: cell-based, mouse
# Conditions: for RECOVERY RATE about 3 hours later / RECOVERY RATE about 24 hours later / RECOVERY RATE immediately after thawing / number of embryos ABOUT 3 HOURS LATER / number of embryos ABOUT 24 HOURS LATER / number of embryos IMMEDIATELY AFTER THAWING: 19 embryos
# Procedure: In this treatment example, as in the above-mentioned treatment example 9, the normal medium (hereinafter, referred to as “Y− medium” as in the treatment example 9), the temporary treatment medium to which Y-27632 is added (hereinafter, referred to as “Y+ medium” as in the treatment example 9), and a CB-added medium (hereinafter, referred to as “CB+ medium”) were used. The concentrations of CB in the CB+ medium were 5 μM and 10 μM are prepared. As the manipulation, the recovery rates when frozen embryos were thawed and developed, then re-frozen in blastocysts and re-thawed were compared.
# For the treatment, 107 frozen embryos of C57BL/6J (provided from CLEA Japan, Inc.) at the 2-cell stage were used. Firstly, the frozen embryos at the 2-cell stage were thawed and blastocysts were developed as they were in a normal medium.
# Then, the blastocysts were then transferred to each of the above media and placed for 30 minutes. Then, the embryos were transferred to Y− medium again and placed for 30 minutes.
# Then, each embryo was frozen.
# Then, the embryos were then thawed and placed in M2 medium for 10 minutes.
# Then, each embryo was evenly divided and placed on the medium for 1 hour.
# The embryos were observed by returning to the Y− medium again. This observation was performed immediately after thawing, 3 hours later, and 24 hours later.
compound,measurement,setting,value
"C=C1[C@@H](C)[C@H]2[C@H](Cc3ccccc3)NC(=O)[C@]23OC(=O)/C=C/[C@H](O)CCC[C@@H](C)C/C=C/[C@H]3[C@@H]1O [CB+ mWM, 2H-Oxacyclotetradecino[2,3-d]isoindole-2,18(5H)-dione, 6,7,8,9,10,12a,13,14,15,15a,16,17-dodecahydro-5,13-dihydroxy-9,15-dimethyl-14-methyl ene-16-(phenylmethyl)-, (3E,5R,9R,11E,12aS,13S,15S,15aS,16S,18aS)-]",RECOVERY RATE about 3 hours later,5 μM in mWM,94%
same,RECOVERY RATE about 24 hours later,5 μM in mWM,78%
same,RECOVERY RATE immediately after thawing,5 μM in mWM,26%
same,number of embryos ABOUT 3 HOURS LATER,5 μM in mWM,18
same,number of embryos ABOUT 24 HOURS LATER,5 μM in mWM,15
same,number of embryos IMMEDIATELY AFTER THAWING,5 μM in mWM,5
same,RECOVERY RATE about 3 hours later,10 μM in mWM,52%
same,RECOVERY RATE about 24 hours later,10 μM in mWM,63%
same,RECOVERY RATE immediately after thawing,10 μM in mWM,10%
same,number of embryos ABOUT 3 HOURS LATER,10 μM in mWM,10
same,number of embryos ABOUT 24 HOURS LATER,10 μM in mWM,12
same,number of embryos IMMEDIATELY AFTER THAWING,10 μM in mWM,2
same,recovery rate of 5 μM higher than that of 10 μM,after 24 hours,15%
